For series [1], the system named is B16-F10. Briefly: Antimelanogenic activity against C57BL/6 mouse B16F10 cells incubated for 10 to 50 uM incubated for 24 hrs. The series is classed as functional.
Series [2] deals with B16-F10. As to the kind of experiment: Antimelanogenic activity against C57BL/6 mouse B16F10 cells at 10 uM incubated for 72 hrs relative to control. The series is classed as functional.
The subject of series [3] is B16-F10. Briefly: Antimelanogenic activity against C57BL/6 mouse B16F10 cells at 50 uM incubated for 72 hrs relative to control. The series is classed as functional.
Series [4] concerns B16-F10. As to the kind of experiment: Cytotoxicity against C57BL/6 mouse B16F10 cells assessed as reduction in cell viability incubated for 72 hrs by SRB assay relative to control. The series is classed as cell-based. Particulars: b16-f10, 72 h. Background: In SRB staining, fixed cells bind dye roughly in proportion to their protein.
Series [5] is described as follows: Drug degradation in IMDM cell medium incubated for 24 hrs by HPLC analysis. It is filed as physicochemical. Particulars: read-out: Drug degradation.
A short description of series [6]: Stability of compound in DMSO at 10 mM incubated for 24 hrs by HPLC analysis. It is filed as physicochemical. Particulars: 10000 µM.
Series [7] can be described thus: Stability of compound in IMDM cell medium incubated for 24 hrs by HPLC analysis. The series is classed as physicochemical.
Series [8] concerns B16-F10. As to the kind of experiment: Antimelanogenic activity against C57BL/6 mouse B16F10 cells incubated for 72 hrs. It is filed as functional, cell-based.
Series [9] addresses T1, Tyrosinase (Agaricus bisporus) (UniProt O42713).
T1 sequence (whole entry): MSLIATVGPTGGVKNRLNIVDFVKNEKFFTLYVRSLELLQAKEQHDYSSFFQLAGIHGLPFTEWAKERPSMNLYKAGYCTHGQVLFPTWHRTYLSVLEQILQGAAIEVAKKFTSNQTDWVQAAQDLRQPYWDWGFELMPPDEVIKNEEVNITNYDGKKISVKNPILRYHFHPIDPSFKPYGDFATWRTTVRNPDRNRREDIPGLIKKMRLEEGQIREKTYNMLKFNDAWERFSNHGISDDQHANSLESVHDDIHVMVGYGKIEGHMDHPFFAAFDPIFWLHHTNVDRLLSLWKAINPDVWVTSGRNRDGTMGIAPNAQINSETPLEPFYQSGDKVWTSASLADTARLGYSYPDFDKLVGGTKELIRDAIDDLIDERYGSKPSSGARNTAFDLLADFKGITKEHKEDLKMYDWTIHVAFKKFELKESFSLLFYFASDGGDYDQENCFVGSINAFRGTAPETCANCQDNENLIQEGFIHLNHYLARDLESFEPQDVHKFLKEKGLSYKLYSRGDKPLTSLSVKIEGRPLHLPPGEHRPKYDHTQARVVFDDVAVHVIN
As to the kind of experiment: Ratio of IC50 for arbutin to IC50 for test compound for inhibition of mushroom tyrosinase.

Series [10] addresses T2, Tyrosinase (Agaricus bisporus, UniProt O42713).
T2 sequence (O42713 whole entry): T1 sequence (whole entry)
As to the kind of experiment: Inhibition of mushroom tyrosinase using L-dopa as substrate preincubated for 10 mins followed by substrate addition and measured for 5 mins by photometric analysis.

The subject of series [11] is B16-F10. Briefly: Cytotoxicity against C57BL/6 mouse B16F10 cells assessed as increase in membrane blebbing at 50 uM incubated for 48 hrs by microscopic method. It is filed as cell-based. Particulars: b16-f10, 48 h.
Series [12] deals with B16-F10. As to the kind of experiment: Cytotoxicity against C57BL/6 mouse B16F10 cells assessed as increase in cell shrinking at 50 uM incubated for 48 hrs by microscopic method. The series is classed as cell-based. The settings on record: b16-f10, 48 h.

SMILES strings stand for the structures. The source made the active and inactive calls. The rule behind the calls is not given here.

Turning to `OC[C@H]1O[C@@H](Oc2ccc(O)cc2)[C@H](O)[C@@H](O)[C@@H]1O`, in series [1], the outcome was inactive.

A word on the IC50: it is the concentration needed to halve the response being measured. Turning to `OC[C@H]1O[C@@H](Oc2ccc(/C=C/c3cc(O)cc(O)c3)cc2)[C@H](O)[C@@H](O)[C@@H]1O` [GOB C], the Activity is 25% in series [1]; 50% in series [2]; 65% in series [3]; “Non-Toxic” in [4]; “Dose-dependent effect” in series [8]. Further, the degraded at 24 h in [5] was 30%. For the same compound, the Stability entry is recorded as “Stable” in series [6] and “Unstable” in [7]. Also, the Ratio IC50 in [9] was 73. Moreover, in [10], half-maximal inhibition (IC50) was put at 19 µM.

For the compound `OC[C@H]1O[C@@H](Oc2cc(O)cc(/C=C/c3ccc(O)cc3)c2)[C@H](O)[C@@H](O)[C@@H]1O` [PICEID], the result in [1] was inactive. The Stability entry in series [6] and in series [7] was “Stable” in each case.

As for `Oc1ccc(/C=C/c2cc(O)cc(O)c2)cc1` [RESVERATROL], the Activity in series [1] is on record as 25%; in series [2] it was 50%; in series [3], 65%; in series [4], 70%; in series [11] it was “Toxic”; in series [12] it was “Toxic”. For the same compound, the Activity result in series [8] was “Dose-dependent effect”. In addition, the Stability result in series [6] and in [7] was “Stable” throughout.

Values taken from ChEMBL document CHEMBL4312004, “From bench to counter: Discovery and validation of a peony extract as tyrosinase inhibiting cosmeceutical” (Eur J Med Chem, 2019).
